Measured values as given in publication PMC7939384, “In crystallo screening for proline analog inhibitors of the proline cycle enzyme PYCR1” (The Journal of Biological Chemistry, 2021).

Legend:
[1] = tested on: MCF10A hRAS^V12 spheroids; experiment: Intracellular proline abundance in spheroids (GC-MS); assay type: cell-based; conditions: 5 mM, 5 days
[2] = tested on: MCF10A hRAS^V12 spheroids; experiment: Spheroid growth based on protein content; assay type: cell-based; conditions: 5 mM, 5 days
human PYCR1 = target: T1, human PYCR1 (Homo sapiens, UniProt P32322); experiment: In crystallo screening: electron density as readout for binding (crystal soaking); set-up: includes residues 1–300 of the full-length 319-residue enzyme; inferred from the Ni-NTA purification; made in house; host or cells: Escherichia coli BL21 (DE3); conditions: apo crystals soaked with 25–500 mM of the proline analog
T1 sequence (P32322 1-300): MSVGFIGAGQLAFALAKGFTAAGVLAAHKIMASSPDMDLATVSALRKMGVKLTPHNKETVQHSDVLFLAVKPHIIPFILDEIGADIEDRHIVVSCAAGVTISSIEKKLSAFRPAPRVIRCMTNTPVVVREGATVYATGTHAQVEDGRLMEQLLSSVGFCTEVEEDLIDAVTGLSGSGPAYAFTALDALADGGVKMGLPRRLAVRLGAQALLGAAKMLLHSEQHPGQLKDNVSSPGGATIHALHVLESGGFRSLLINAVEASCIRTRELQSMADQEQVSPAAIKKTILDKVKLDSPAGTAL
Protocol: Over two dozen proline analogs (Fig. 2) were screened using electron density from X-ray crystallography as the readout for binding to human PYCR1. […] Because the compounds bind in the P5C/proline site, the mechanism of inhibition was assumed to be competitive with P5C. Therefore, steady-state kinetic measurements were performed with L-P5C as the variable substrate (0-1000 μM) and NADH fixed (175 μM) (Fig. 3). For each compound, the data were fit globally to a competitive inhibition model (Equation 1) to obtain an inhibition constant, Ki.
06594), D,L-thiazolidine-2-carboxylate (Sigma-Aldrich no. 467995), L-thiazolidine-4-carboxylate (Sigma-Aldrich no. T27502), 1,3-thiazolidine-2,4-dicarboxylate (Sigma-Aldrich no. CDS000186), dimethyl 1,3-thiazolidine-2,4-dicarboxylate (Sigma-Aldrich no. […] 287067), L-4-hydroxyproline methyl ester (hydrochloride) (Sigma-Aldrich no. 30681), cis-4-hydroxy-D-proline methyl ester (hydrochloride) (Sigma-Aldrich no. […] 441562), L-(+)-mandelic acid (Sigma-Aldrich no. 63460), sodium-L-lactate (Sigma-Aldrich no. 71718), D-cycloserine (Sigma-Aldrich no. C6880). The proline analogs were added to apo crystals during cryoprotection by soaking the crystals in the reservoir solution supplemented with cryoprotectant (PEG 200 for the PEG 3350 form; glycerol for the NaCl form) and then in the same cryobuffer supplemented with 25–500 mM of the proline analog. Following equilibration, the crystals were harvested and rapidly plunged into liquid nitrogen.
The complex of PYCR1 with THFA was obtained by soaking a C2 crystal (NaCl form) for 15 min in a cryo-buffer consisting of the reservoir solution (3 M NaCl and 0.1 M HEPES at pH 7.5–8.0) supplemented with 30% glycerol and 50 mM THFA, followed by flash-cooling in liquid nitrogen. Crystals of the NFLP complex were prepared by soaking P2_12_12 crystals in the reservoir solution (250 mM Li2SO4, 19% (w/v) PEG 3350, 0.1 M HEPES, pH 7.5) supplemented with 20% (v/v) PEG 200 and 100 mM NFLP. The complexes with L-T2C and L-T4C were prepared similarly, except the Li2SO4 concentration was reduced to 25 mM and 50 mM of either L-T4C or D,L-T2C was included.

## O=CN1CCC[C@H]1C(=O)O [NFLP, N-formyl L-proline]
[1]
  increase of intracellular proline abundance compared with THFA: about 10 fold
  increase of intracellular proline abundance compared with control: ~40 fold
[2]
  reduction of spheroid growth based on protein content compared with control: 50%
Human PYCR1
  electron density evidence for binding (in words): Electron density evidence for binding was observed
